The conditions of data set [1]: 293.15 K; 101.3 kPa; Liquid; Vibrating tube method.
The nature of data set [2]: refractive index (Na D-line) (dimensionless). The conditions noted are these: 293.15 K; 101.33 kPa; Liquid; Standard Abbe refractometry.

± gives the expanded uncertainty stated by the source.

The mass density is mass per unit of volume. One may read the refractive index as the speed of light in vacuum divided by its phase velocity in the sample. Regarding `CC(=O)OCC(C)C` [2-methylpropyl ethanoate], in data set [1], the mass density is given as 873.4 ± 1.6 kg/m3. Besides, the refractive index in data set [2] is recorded as 1.3902 ± 0.0025.

Regarding `CCO` [ethanol], the mass density in data set [1] is reported as 789.2 ± 1.6 kg/m3. The refractive index in data set [2] is given as 1.3616 ± 0.0025.

Take `CO` [methanol]: the mass density in data set [1] is reported as 792.1 ± 1.6 kg/m3. Moreover, the refractive index in data set [2] was 1.3285 ± 0.0025.
